Measurements published in patent publication US20110237676A1, “SPERMICIDAL AND MICROBICIDAL COMPOSITIONS” (LEHIGH UNIVERSITY, priority 2007, published 2011).

What was measured:
[1] = tested on: sperm cells (whole semen); test: Sperm cell necropsy by propidium iodide (PI) staining, epifluorescence microscopy; format: cell-based, human
Procedure: (§1) The general experimental protocol was as follows: Whole semen, obtained from human subjects after informed consent, was treated with various concentrations of fluorous surfactants. Samples were incubated for 5-10 min at 37° C. and 5% CO2. Semen samples were diluted in an isotonic buffered human sperm medium containing glucose. Sperm motility was scored as “% motility” using differential interference microscopy (“DIC”). Cell necropsy was determined by propidium iodide (“PI”) staining, which is known to stain the DNA of dead cells, and “% death” was scored using epifluorescence microscopy (stained and unstained sperm cells were counted to obtain a live/dead ratio). Acrosome integrity was determined with epifluorescence microscopy and fluorescein-conjugated Pisum sativum agglutinin (“FITC-PSA”) staining, the staining patterns of which are known to indicate the status of the acrosomal membrane.
(§2) To validate the general experimental protocol, the motility of whole semen treated with N-9 for 5 min was determined using DIC microscopy and PI staining Results are presented in Table 1.

Escherichia coli = test: Effects on microbes: growth inhibition of E. coli; format: cell-based
Excerpt: (§3) Fluorous surfactants also disrupt the membranes of pathogenic microbes, and they therefore have microbicidal activities. Preferably, they are toxic to pathogenic microorganisms, yet compatible with the flora normally found in human mucosal (e.g., vaginal) tissues. The effects of various fluorous surfactants on some laboratory models of pathogenic microorganisms (Escherichia coli, Saccharomyces cerevisiae, and Candida albicans) were studied.

[2] = tested on: sperm cells (whole semen); test: Sperm motility of treated whole semen scored by differential interference microscopy (DIC); format: cell-based, human
Procedure: as §1, §2

[3] = tested on: acrosome of human spermatozoa; test: Acrosome integrity by FITC-PSA staining, epifluorescence microscopy; format: cell-based; conditions: average; for Type I: bright acrosome; for Type III: equatorial segment; for Type II: medium acrosome; for Type IV: no labeling
Procedure: as §1
Staining with fluorescein isothiocyanate Pisium sativum agglutinin (“FITC-PSA”) is known to stain components of the acrosome, and the staining pattern differs depending on the condition of the acrosomal membrane. This technique may be used to identify whether the acrosome is intact. Various patterns of fluorescence are seen after labeling of air-dried human spermatozoa with FITC lectins, including a bright acrosome (Type I), a medium acrosome (Type II), an equatorial segment (Type III), and no labeling (Type IV). See, e.g., Mortimer et al., “Specific Labelling by Peanut Agglutinin of The Outer Acrosomal Membrane of The Human Spermatozoon,” J. Reprod. Fert. 81, 127-35 (1987). Averages of FTIC-PSA results are presented in Table 6, which includes percentages of acrosomes compromised and types of sperm visualized in the control and treated samples.

Candida albicans = test: Effects on microbes: growth inhibition of Candida albicans; format: cell-based; conditions: for inhibition of growth of Candida: 400 mM
Excerpt: as §3

HeLa cells = test: Effects on HeLa (cervix) cells, morphology by microscopy; format: cell-based, human; conditions: 1.76 mM, 30 min
Excerpt: The effects of nonoxynol-9 and various fluorous surfactants on HeLa cells, which are a laboratory model for human cervical cells, were studied. […] Accordingly, it is believed that use of a spermicidal fluorous surfactant will be less irritating to human vaginal tissue.

O=S(=O)([O-])CCCOCC(F)(F)C(F)(F)C(F)(F)F.[Na+] [F7-PS, sodium 3-(2,2,3,3,4,4,4-heptafluoro-butoxy)-propane-1-sulfonate] was tested, and the “% Death” value ([1]; 4%, 5 min) was 90%, the “% Death” value ([1]; 4%, 10 min) was 99% and the “% Death” value ([1]; 5%, 5 min) was 96%. For the same compound, the “% Death” value ([1]; 5%, 10 min) was 96%, the “% Death” value ([1]; 7%, 5 min) was 100% and the “inhibition of E. coli” value (Escherichia coli; 250 mM, compared with F7-TEG/F5-TEG treatments) was “comparable inhibition”. For the same compound, the “% Motility” value ([2]; 4%, 5 min) was under 1%, the “% Motility” value ([2]; 5%, 5 min) was under 1% and the “% Motility” value ([2]; 5%, 10 min) was 0%. The “% Motility” value ([2]; 7%, 5 min) was 0%, the “Acrosome Compromised” value ([3]; 3%) was 36% and the “Acrosome Not Compromised” value ([3]; 3%) was 64%. The “Type I” value ([3]; 3%) was 64%, the “Type III” value ([3]; 3%) was 0% and the “Type II” value ([3]; 3%) was 13%. For the same compound, the “Type IV” value ([3]; 3%) was 22%, the “Acrosome Compromised” value ([3]; 4%) was 100% and the “Acrosome Not Compromised” value ([3]; 4%) was 0%. The “Type I” value ([3]; 4%) was 0%, the “Type III” value ([3]; 4%) was under 1% and the “Type II” value ([3]; 4%) was 4%. The “Type IV” value ([3]; 4%) was 95%, the “Acrosome Compromised” value ([3]; 7%) was 41% and the “Acrosome Not Compromised” value ([3]; 7%) was 59%. For the same compound, the “Type I” value ([3]; 7%) was 59%, the “Type III” value ([3]; 7%) was 0% and the “Type II” value ([3]; 7%) was 40%. The “Type IV” value ([3]; 7%) was 1%, the “inhibition of growth of Candida” value (Candida albicans; exposure in the order of 24 hours) was “significant inhibition of growth” and the “inhibition of growth of Candida” value (Candida albicans; exposure limited to 3 or 6 hours) was “allowed recovery of growth”.
OCCOCCOCCOCC(F)(F)C(F)(F)C(F)(F)F [F7-TEG, F7-triethylene glycol] was tested, and the “% Death” value ([1]; 5%, 5 min) was 97%, the “% Death” value ([1]; 5%, 10 min) was 99% and the “% Death” value ([1]; 6%, 5 min) was 98%. For the same compound, the “% Death” value ([1]; 7%, 5 min) was 99%, the “% Death” value ([1]; 8%, 5 min) was 100% and the “% Death” value ([1]; 9%, 5 min) was 100%. The “% Death” value ([1]; 10%, 5 min) was 95%, the “% Death” value ([1]; 12%, 5 min) was 99% and the “% Death” value ([1]; 15%, 5 min) was 98%. For the same compound, the “% Death” value ([1]; 15%, 10 min) was 100%, the “inhibition to growth of E. coli relative to non-fluorous homologs” value (Escherichia coli) was “greater inhibition” and the “growth of E. coli” value (Escherichia coli; final concentrations of 1% or greater, 3 hours or longer) was “unable to grow”. For the same compound, the “% Motility” value ([2]; 5%, 5 min) was 0%, the “% Motility” value ([2]; 6%, 5 min) was 0% and the “% Motility” value ([2]; 7%, 5 min) was 0%. For the same compound, the “% Motility” value ([2]; 8%, 5 min) was 0%, the “% Motility” value ([2]; 9%, 5 min) was 0% and the “% Motility” value ([2]; 10%, 5 min) was 1%. For the same compound, the “% Motility” value ([2]; 12%, 5 min) was 0%, the “% Motility” value ([2]; 15%, 5 min) was 0% and the “% Motility” value ([2]; 15%, 10 min) was 0%. The “Acrosome Compromised” value ([3]; 5%) was 87%, the “Acrosome Not Compromised” value ([3]; 5%) was 13% and the “Type I” value ([3]; 5%) was 13%. For the same compound, the “Type III” value ([3]; 5%) was under 1%, the “Type II” value ([3]; 5%) was 59% and the “Type IV” value ([3]; 5%) was 28%. The “Acrosome Compromised” value ([3]; 6%) was 88%, the “Acrosome Not Compromised” value ([3]; 6%) was 13% and the “Type I” value ([3]; 6%) was 13%. For the same compound, the “Type III” value ([3]; 6%) was 5%, the “Type II” value ([3]; 6%) was 25% and the “Type IV” value ([3]; 6%) was 58%. For the same compound, the “Acrosome Compromised” value ([3]; 10%) was 96%, the “Acrosome Not Compromised” value ([3]; 10%) was 4% and the “Type I” value ([3]; 10%) was 4%. For the same compound, the “Type III” value ([3]; 10%) was 3%, the “Type II” value ([3]; 10%) was 34% and the “Type IV” value ([3]; 10%) was 59%. The “inhibition of Candida” value (Candida albicans; 5%, exposure 3 hours or longer) was “substantial inhibition”.
nonoxynol-9 [N-9, reference compound] was tested, and the “% Death” value ([1]; 0.001%, 5 min, PI staining) was 38%, the “killing of sperm cells” value ([1]; 1.76 mM, 5 min) was “kill essentially all sperm cells” and the “% Death” value ([1]; 0.005%, 5 min, PI staining) was 60%. The “% Death” value ([1]; 0.01%, 5 min, PI staining) was 67%, the “% Death” value ([1]; 0.1%, 5 min, PI staining) was 94% and the “morphological changes of HeLa cells” value (HeLa cells) was “significant morphological changes”. The “% Motility” value ([2]; 0.001%, 5 min, whole semen) was 43%, the “% Motility” value ([2]; 0.005%, 5 min, whole semen) was 60% and the “% Motility” value ([2]; 0.01%, 5 min, whole semen) was under 1%. The “% Motility” value ([2]; 0.1%, 5 min, whole semen) was 0%.
